Test results: PubChem BioAssay (NCI)
Where “and” joins values, the source holds several entries; their conditions need not be identical. Identical values can stand only once.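 How tested: cells in 96-well plates exposed to compound for 48 hours at five concentrations. GI50 = concentration required for 50% inhibition of growth. At the TGI there is no net growth.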

Tests used:
Test in all cases: NCI tumour cell line growth inhibition, 48 h
OVCAR-5 ovarian = system: OVCAR-5 ovarian
RXF 393 renal = system: RXF 393 renal
MOLT-4 leukemia = system: MOLT-4 leukemia
OVCAR-8 ovarian = system: OVCAR-8 ovarian
COLO 205 colon = system: COLO 205 colon
HCT-15 colon = system: HCT-15 colon
TK-10 renal = system: TK-10 renal
EKVX NSCLC = system: EKVX NSCLC
SW-620 colon = system: SW-620 colon
SK-MEL-5 melanoma = system: SK-MEL-5 melanoma

Structure (SMILES) | GI50 (OVCAR-5 ovarian) [µM] | TGI (OVCAR-5 ovarian) | GI50 (RXF 393 renal) [µM] | TGI (RXF 393 renal) | GI50 (MOLT-4 leukemia) [µM] | TGI (MOLT-4 leukemia) | GI50 (OVCAR-8 ovarian) [µM] | TGI (OVCAR-8 ovarian) | GI50 (COLO 205 colon) [µM] | TGI (COLO 205 colon) | GI50 (HCT-15 colon) [µM] | TGI (HCT-15 colon) | GI50 (TK-10 renal) [µM] | TGI (TK-10 renal) | TGI (EKVX NSCLC) [µM] | TGI (SW-620 colon) | TGI (SK-MEL-5 melanoma) | GI50 (SW-620 colon) [µM] | GI50 (SK-MEL-5 melanoma) [µM] | GI50 (EKVX NSCLC) [µM]
CC1(C)C2CCC13C(=O)C1OC3(C2)C2C(=O)c3cc4ccccc4cc3C(=O)C12 (stereo unspecified) | 18.4 | > 100 µM | 8.4 | 46.2 µM | 1.76 | 19.2 µM | 33.8 | > 100 µM | 14.7 | > 100 µM | 9.28 | 68.8 µM | 12.9 | 44.5 µM |  |  |  |  |  | 
O=C1CC(O)CC(=O)C1=C(O)CCCCCCCCCCc1ccccc1 (stereo unspecified) |  | > 100 µM |  | > 100 µM |  | > 100 µM |  | > 100 µM |  | > 100 µM |  |  |  | > 100 µM | > 100 | > 100 µM | > 100 µM |  |  | 
O=C(O)CCN(CCCCN(CCC(=O)O)CCC(=O)O)CCC(=O)O |  | > 100 µM |  |  |  | > 100 µM |  | > 100 µM |  | > 100 µM |  | > 100 µM |  | > 100 µM | > 100 | > 100 µM | > 100 µM |  |  | 
C=C(C)C(O)CCC1(C)C=Cc2c(c(C)cc3c2[nH]c2ccccc23)O1 (stereo unspecified) | 2.11 | 8.96 µM and 6.03 µM | 2.78 | 25 µM and 8.51 µM | 3.47 | 18.7 µM and 13.8 µM | 10.7 | 25 µM and 22.9 µM | 2.43 | 9.81 µM and 6.13 µM | 1.93 | 8.23 µM and 4.71 µM | 14 | > 25 µM and 27 µM |  | 10.2 µM and 18.7 µM | 25 µM and 21.7 µM | 5.08 | 10.1 | 
CCc1ccccc1NC(=O)C1=C(C)NC(C)=C(C(=O)Nc2ccccc2CC)C1c1ccccc1Cl |  | > 100 µM |  | > 100 µM |  | > 100 µM |  | > 100 µM |  | > 100 µM |  |  |  | > 100 µM | > 100 | > 100 µM | > 100 µM |  |  | 
CCOC(=O)c1c(C)nc2c(c1N)CC(=O)N2Cc1ccc(OC)cc1 | > 100 | > 100 µM |  |  | 81.3 | > 100 µM | 5.42 | > 100 µM | > 100 | > 100 µM |  |  | 5.12 | > 100 µM | > 100 | > 100 µM | > 100 µM | > 100 | > 100 | 7.91
O=C(NCCCCNc1cccccc1=O)OCc1ccccc1 |  | > 100 µM |  |  |  | > 100 µM |  | > 100 µM |  | > 100 µM |  | > 100 µM |  | > 100 µM | > 100 | > 100 µM | > 100 µM |  |  | 
N.N.N.N.[Co+3].[N-]=[N+]=[N-].[N-]=[N+]=[N-].[N-]=[N+]=[N-] | > 100 | > 100 µM |  |  | 36 | > 100 µM | > 100 | > 100 µM | > 100 | > 100 µM | > 100 | > 100 µM | > 100 | > 100 µM | > 100 | > 100 µM | > 100 µM | > 100 | > 100 | > 100
C=CCOc1cc(NC(=S)c2ccoc2C)ccc1OC |  | > 100 µM |  |  |  | > 100 µM |  | > 100 µM |  | > 100 µM |  | > 100 µM |  |  | > 100 | > 100 µM | > 100 µM |  |  | 
CC1=C(c2ccccc2)C(c2ccccc2)=C(c2ccccc2)C2(c3ccccc3)C(=O)C(C)CN12 (stereo unspecified) |  | > 100 µM |  | 63.5 µM |  | > 100 µM |  | 59.2 µM |  |  |  | > 100 µM |  |  | > 100 | > 100 µM | > 100 µM |  |  | 
O=c1[nH]nnc2c1ncn2C1OC(CO)C(O)C1O (stereo unspecified) | 74.9 | > 100 µM | 14.1 | > 100 µM | 2.07 | 36 µM | 4.73 | > 100 µM | 6.09 | > 100 µM | 8.04 | > 100 µM | 2.98 | > 100 µM |  | > 100 µM | > 100 µM | 10.6 | 32.9 | 
CN1CCC2(CC1)ONC1=NCCN12 |  |  |  |  | 23.6 | > 100 µM |  | 12.9 µM | 31.1 | > 100 µM | 24.1 | > 100 µM |  |  | > 100 | > 100 µM | > 100 µM | 51.8 | 59.8 | 92.5
CCCCCCCCCCCc1nnc(N)o1 |  | > 100 µM |  |  |  | > 100 µM |  | > 100 µM |  | > 100 µM |  | > 100 µM |  | > 100 µM |  | > 100 µM |  |  |  | 
CCN1C(=O)N(CC)C2C1NN=c1s/c(=C\c3cccc(F)c3)c(=O)n12 (stereo unspecified) | 0.556 | > 100 µM |  |  | 0.327 | > 100 µM | 0.345 | > 100 µM | 0.243 | 4.92 µM | 0.0549 | > 100 µM | 27.2 | > 100 µM | > 100 | > 100 µM | 2.33 µM | 0.0845 | 0.131 | 0.657
COc1ccc(/C=C/C(=O)c2cc(OC)c(OC)c(OC)c2)cc1OCc1cn(Cc2ccc(F)cc2)nn1 | 3.22 | > 100 µM | 1.9 | 5.51 µM | 3.97 | 68.5 µM | 2.58 | 31.5 µM | 2.98 | 8.38 µM | 2.04 | > 100 µM | 3 | 8.06 µM |  | > 100 µM | 13.3 µM | 3.16 | 3.24 | 
C[C@]12C[C@H](CCCCCCNCCOC(=O)NCCCc3ccc(N(CCCl)CCCl)cc3)C3=C4CCC(=O)C=C4CCC3C1CC[C@@H]2O (stereo partly specified) | 5.84 | 11 µM | 0.294 | 1.21 µM | 0.34 | 1.56 µM |  |  | 1.45 | 3.9 µM |  |  | 1.85 | 4.49 µM | 4.05 | 4.07 µM | 3.02 µM | 1.2 | 1.47 | 2.07
CCOC(=O)/C(C=Nc1ccc(-c2nc3ccccc3[nH]2)cc1)=C(/C)O | 17.1 | 36.3 µM |  |  |  |  | 8.78 | 17.7 µM | 10.7 | 33.4 µM | 10.1 | 24.4 µM | 25.4 | > 50 µM | 38.9 | 22.7 µM | 15.5 µM | 11.7 | 7.71 | 11.9
Cc1nnn[n-]1.N.N.N.N.N.[Cl-].[Co+3] | > 100 | > 100 µM | > 100 | > 100 µM | > 100 | > 100 µM | > 100 | > 100 µM | > 100 | > 100 µM |  |  | > 100 | > 100 µM | > 100 | > 100 µM | 10.7 µM | > 100 | 1.86 | > 100
O=C1C(Cl)=C(Nc2cccc(F)c2)C(=O)N1Cc1ccc(Cl)cc1 | 4.58 | 22.4 µM | 0.39 | 4.91 µM | 0.506 | > 100 µM | 0.759 | 8.83 µM | 0.516 | 11.9 µM | 0.398 |  | 5.7 | 19.3 µM |  | 13 µM | 2.19 µM | 0.531 | 0.403 | 
NS(=O)(=O)c1ccc(-n2nc(-c3ccc(Cl)cc3)cc2-c2cc(O)ccc2O)cc1 | 15.7 | 31.1 µM |  |  | 5.15 | > 100 µM | 13.3 | 58.6 µM |  |  | 6.28 | 19.2 µM | 10.9 | 26.1 µM | 45.6 | 89.4 µM | 32.3 µM | 23.4 | 15.2 | 22.6
CCOC(=O)C12CCCC1(O)N(NC(=O)OC(C)(C)C)C(C)=C2C(=O)OC (stereo unspecified) |  | > 100 µM |  |  |  | > 100 µM |  | > 100 µM |  | > 100 µM |  | > 100 µM |  | > 100 µM | > 100 | > 100 µM |  |  |  | 
O=C(COc1ccc(Cl)cc1)N1N=C(c2ccc(Cl)cc2)CC1(O)c1ccccc1 (stereo unspecified) |  | 45.3 µM |  |  |  | 30.6 µM |  | 30 µM |  | 54.6 µM |  | > 58.1 µM |  | > 78 µM | 91.4 | > 69.3 µM | 29.3 µM |  |  | 
C=C1C(=O)O[C@H]2[C@H]1CC/C(CNC(=O)/C=C/c1cc(OC)c(OC)c(OC)c1)=C\CC[C@@]1(C)O[C@@H]21 | 2.44 | 12.9 µM | 0.298 | 1.88 µM | 2.09 | 6.22 µM | 4.09 | 16.1 µM | 0.618 | 2.45 µM | 2.96 | 13.5 µM |  |  | 13.8 | 2.49 µM | 7.33 µM | 0.615 | 2.49 | 2.22
COC(=O)NC(=O)c1cn(C2OC(CO)C(O)C2O)c(=O)[nH]c1=O (stereo unspecified) |  | > 100 µM |  |  |  | > 100 µM |  | > 100 µM |  | > 100 µM |  | > 100 µM |  | > 100 µM |  | > 100 µM |  |  |  | 
Cc1cc(CC(=O)NCCO)n(CCO)c(=O)c1 |  | > 100 µM |  | > 100 µM |  | > 100 µM |  | > 100 µM |  | > 100 µM |  |  |  | > 100 µM |  | > 100 µM | > 100 µM |  |  | 
Cc1cccc(/C=C/c2c(C(=O)/C=C/c3ccccc3)c(C)nc3ccccc23)c1 | 1.98 | 3.56 µM | 1.51 | 2.86 µM | 0.508 | 3.72 µM |  |  | 1.81 | 4.34 µM | 1.26 | 3.57 µM |  |  | 3.26 | 2.98 µM | 2.99 µM | 1.34 | 1.64 | 1.75
